Laboratory results taken from patent US20120213758A1, “BIARYL PDE4 INHIBITORS FOR TREATING PULMONARY AND CARDIOVASCULAR DISORDERS” (DeCODE Genetics enf, priority 2007, published 2012).
Structures can show the parent of a compound that is named as a salt.

Experiments:
[1] = target: hPDE4D (Homo sapiens, UniProt Q08499); assay: In-vitro real-time enzyme-coupled spectrophotometric assay for PDE4 enzymes (hPDE4D)
[2] = target: hPDE4B (Homo sapiens, UniProt Q07343); assay: In-vitro real-time enzyme-coupled spectrophotometric assay for PDE4 enzymes (hPDE4B)
Chain of hPDE4B (Q07343 whole entry): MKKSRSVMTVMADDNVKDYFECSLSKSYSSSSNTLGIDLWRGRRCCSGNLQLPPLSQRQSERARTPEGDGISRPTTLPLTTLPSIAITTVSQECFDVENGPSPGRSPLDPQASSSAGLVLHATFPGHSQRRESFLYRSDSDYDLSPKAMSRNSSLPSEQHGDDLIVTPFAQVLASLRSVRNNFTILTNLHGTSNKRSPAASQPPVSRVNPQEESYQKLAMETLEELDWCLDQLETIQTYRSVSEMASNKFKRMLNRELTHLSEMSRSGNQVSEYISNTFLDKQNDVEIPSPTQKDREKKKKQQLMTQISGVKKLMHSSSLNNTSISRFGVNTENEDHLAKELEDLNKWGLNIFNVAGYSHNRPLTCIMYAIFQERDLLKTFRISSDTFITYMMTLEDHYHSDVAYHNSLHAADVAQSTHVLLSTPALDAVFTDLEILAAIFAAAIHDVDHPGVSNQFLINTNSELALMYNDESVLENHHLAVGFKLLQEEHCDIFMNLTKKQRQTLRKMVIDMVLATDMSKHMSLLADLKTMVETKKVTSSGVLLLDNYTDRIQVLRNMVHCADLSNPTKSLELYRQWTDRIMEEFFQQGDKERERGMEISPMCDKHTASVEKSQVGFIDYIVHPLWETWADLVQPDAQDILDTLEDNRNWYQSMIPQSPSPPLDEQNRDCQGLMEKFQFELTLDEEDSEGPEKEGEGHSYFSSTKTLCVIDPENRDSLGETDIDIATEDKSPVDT

Chain of hPDE4D (Q08499 whole entry): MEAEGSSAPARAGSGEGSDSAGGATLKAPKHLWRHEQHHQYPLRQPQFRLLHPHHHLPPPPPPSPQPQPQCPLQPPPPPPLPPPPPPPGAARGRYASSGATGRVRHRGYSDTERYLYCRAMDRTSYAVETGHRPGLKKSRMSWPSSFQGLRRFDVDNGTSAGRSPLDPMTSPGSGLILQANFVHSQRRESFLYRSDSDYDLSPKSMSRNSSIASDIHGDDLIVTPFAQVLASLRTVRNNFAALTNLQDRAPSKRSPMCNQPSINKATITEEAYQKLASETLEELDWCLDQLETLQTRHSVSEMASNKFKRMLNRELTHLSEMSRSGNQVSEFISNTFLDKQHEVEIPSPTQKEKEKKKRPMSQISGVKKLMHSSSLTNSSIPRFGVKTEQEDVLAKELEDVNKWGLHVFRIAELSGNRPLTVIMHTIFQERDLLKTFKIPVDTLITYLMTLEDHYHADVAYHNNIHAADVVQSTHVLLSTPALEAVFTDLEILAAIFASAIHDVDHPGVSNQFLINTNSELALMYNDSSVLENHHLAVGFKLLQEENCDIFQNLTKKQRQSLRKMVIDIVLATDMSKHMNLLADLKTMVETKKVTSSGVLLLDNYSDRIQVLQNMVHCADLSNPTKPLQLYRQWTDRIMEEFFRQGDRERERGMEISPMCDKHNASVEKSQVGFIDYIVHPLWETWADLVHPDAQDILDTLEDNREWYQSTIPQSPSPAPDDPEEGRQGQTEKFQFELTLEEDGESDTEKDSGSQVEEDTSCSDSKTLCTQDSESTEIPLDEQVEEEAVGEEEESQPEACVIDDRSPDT

SMILES | IC50 [1] [µM] | IC50 [2] [µM]
COc1ccc(Cc2ccc3nc(C(=O)O)cn3c2)c(F)c1-c1cccc(Cl)c1 [Example A-043, 6-(3′-Chloro-2-fluoro-6-methoxy-biphenyl-3-ylmethyl)-imidazo[1,2-a]pyridine-2-carboxylic acid] | < 5 | 5 to 20
COc1ccc(Cc2ccc(C(=O)NS(C)(=O)=O)nc2)c(F)c1-c1cccc(Cl)c1 [Example A-050, N-[5-(3′-Chloro-2-fluoro-6-methoxy-biphenyl-3-ylmethyl)-pyridine-2-carbonyl]-methanesulfonamide] | < 5 | < 5
COc1ccc(Cc2ccc(C(=O)O)nc2)c(F)c1-c1cccc(C(C)=O)c1 [Example A-021, 5-(3′-Acetyl-2-fluoro-6-methoxy-biphenyl-3-ylmethyl)-pyridine-2-carboxylic acid] | 5 to 20 | 5 to 20
COc1ccc(Cc2cnc(N3CCC(C(=O)O)C3)nc2)c(F)c1-c1cccc(Cl)c1 (centres unmarked) [Example A-044, 1-[5-(3′-Chloro-2-fluoro-6-methoxy-biphenyl-3-ylmethyl)-pyrimidin-2-yl]-pyrrolidine-3-carboxylic acid] | < 5 | 20 to 40
COC(=O)c1ccc(Cc2ccc(OC(F)F)c(-c3cccc(Cl)c3)c2)cn1 [Example A-075, 5-(3′-Chloro-6-difluoromethoxy-biphenyl-3-ylmethyl)-pyridine-2-carboxylic acid methyl ester] | < 5 | < 5
COc1ccc(Cc2ccc(NC(=O)NCCC(=O)O)nc2)c(F)c1-c1cccc(Cl)c1 [Example A-032] | < 5 | 5 to 20
COc1ccc(Cn2cncc2C(=O)O)c(F)c1-c1cccc(Cl)c1 [Example A-060, 3-(3′-Chloro-2-fluoro-6-methoxy-biphenyl-3-ylmethyl)-3H-imidazole-4-carboxylic acid] | < 5 | 5 to 20
COc1ccc(Cn2cnc3c(=O)[nH]c(N)nc32)cc1-c1cccc([N+](=O)[O-])c1 [Example A-004, 2-Amino-9-(6-methoxy-3′-nitro-biphenyl-3-ylmethyl)-1,9-dihydro-purin-6-one] | 5 to 20 | 20 to 40
COc1ccc(Cc2c(C)nn(CC(=O)O)c2C)cc1-c1cccc([N+](=O)[O-])c1 [Example A-006, [4-(6-Methoxy-3′-nitro-biphenyl-3-ylmethyl)-3,5-dimethyl-pyrazol-1-yl]-acetic acid] | < 5 | 5 to 20
COc1ccc(Cc2ccc(NS(N)(=O)=O)c(O)c2)c(F)c1-c1cccc(Cl)c1 [Example A-011] | < 5 | 5 to 20
COc1ccc(Cc2ccc(N(CC(=O)O)C(C)=O)nc2)c(F)c1-c1cccc(Cl)c1 [Example A-037, {acetyl-[5-(3′-chloro-2-fluoro-6-methoxy-biphenyl-3-ylmethyl)-pyridin-2-yl]-amino}-acetic acid] | < 5 | < 5
COc1ccc(Cc2ccc(N(C)CC(=O)O)nc2)c(F)c1-c1cccc(Cl)c1 [Example A-074, {[5-(3′-chloro-2-fluoro-6-methoxy-biphenyl-3-ylmethyl)-pyridin-2-yl]-methyl-amino}-acetic acid] | < 5 | < 5
COc1ccc(Cc2cnc(NS(N)(=O)=O)nc2)c(F)c1-c1cccc(C(C)=O)c1 [Example A-017] | < 5 | < 5
COc1ccc(Cc2ccc(NS(N)(=O)=O)nc2)c(F)c1-c1cccc(Cl)c1 [Example A-010] | < 5 | < 5
COc1ccc(Cc2ccc(N3CCC3C(=O)O)nc2)cc1-c1cccc(Cl)c1 (centres unmarked) [Example A-067, 1-[5-(3′-chloro-6-methoxy-biphenyl-3-ylmethyl)-pyridin-2-yl]-azetidine-2-carboxylic acid acetate salt] | < 5 | 5 to 20
COc1ccc(Cc2ccc(NS(N)(=O)=O)cc2)c(F)c1-c1cccc(C(C)=O)c1 [Example A-016] | < 5 | < 5
